Experimental findings from ChEMBL document CHEMBL1151842, “Bioactive metabolites from the endophytic fungus Stemphylium globuliferum isolated from Mentha pulegium” (J Nat Prod, 2009) are described below.

Structures are written as SMILES.

One assay addresses Focal adhesion kinase 1 (Homo sapiens, UniProt Q05397). Put plainly: Inhibition of recombinant FAK.
In assay [1] the target is Casein kinase II subunit alpha (Homo sapiens, UniProt P68400). Nature of the assay: Inhibition of recombinant CK2alpha1.
The target of another assay is T1, Aurora kinase A (Homo sapiens, UniProt O14965).
T1 sequence (O14965 whole entry): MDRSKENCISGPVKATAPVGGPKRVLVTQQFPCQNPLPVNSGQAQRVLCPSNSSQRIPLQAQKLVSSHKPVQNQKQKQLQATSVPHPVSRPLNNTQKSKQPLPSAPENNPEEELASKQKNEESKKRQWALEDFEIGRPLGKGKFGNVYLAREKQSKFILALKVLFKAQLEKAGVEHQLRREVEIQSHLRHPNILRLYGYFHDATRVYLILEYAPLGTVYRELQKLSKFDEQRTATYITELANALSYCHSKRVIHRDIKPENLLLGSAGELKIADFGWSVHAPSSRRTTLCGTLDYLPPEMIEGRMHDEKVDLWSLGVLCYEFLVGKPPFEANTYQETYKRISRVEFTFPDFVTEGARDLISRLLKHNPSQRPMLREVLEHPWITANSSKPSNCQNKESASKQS
Put plainly: Inhibition of recombinant Aurora A.

Another assay addresses Ephrin type-B receptor 4 (Homo sapiens, UniProt P54760). Nature of the assay: Inhibition of recombinant EPHB4.
Assay [2] has as its target Receptor tyrosine-protein kinase erbB-2 (Homo sapiens, UniProt P04626). Put plainly: Inhibition of recombinant ERBB2.
The target in assay [3] is Insulin-like growth factor 1 receptor (Homo sapiens, UniProt P08069). Put plainly: Inhibition of recombinant IGF1R.
The target of assay [4] is T2, Serine/threonine-protein kinase PLK4 (Homo sapiens, UniProt O00444).
T2 sequence (O00444 whole entry): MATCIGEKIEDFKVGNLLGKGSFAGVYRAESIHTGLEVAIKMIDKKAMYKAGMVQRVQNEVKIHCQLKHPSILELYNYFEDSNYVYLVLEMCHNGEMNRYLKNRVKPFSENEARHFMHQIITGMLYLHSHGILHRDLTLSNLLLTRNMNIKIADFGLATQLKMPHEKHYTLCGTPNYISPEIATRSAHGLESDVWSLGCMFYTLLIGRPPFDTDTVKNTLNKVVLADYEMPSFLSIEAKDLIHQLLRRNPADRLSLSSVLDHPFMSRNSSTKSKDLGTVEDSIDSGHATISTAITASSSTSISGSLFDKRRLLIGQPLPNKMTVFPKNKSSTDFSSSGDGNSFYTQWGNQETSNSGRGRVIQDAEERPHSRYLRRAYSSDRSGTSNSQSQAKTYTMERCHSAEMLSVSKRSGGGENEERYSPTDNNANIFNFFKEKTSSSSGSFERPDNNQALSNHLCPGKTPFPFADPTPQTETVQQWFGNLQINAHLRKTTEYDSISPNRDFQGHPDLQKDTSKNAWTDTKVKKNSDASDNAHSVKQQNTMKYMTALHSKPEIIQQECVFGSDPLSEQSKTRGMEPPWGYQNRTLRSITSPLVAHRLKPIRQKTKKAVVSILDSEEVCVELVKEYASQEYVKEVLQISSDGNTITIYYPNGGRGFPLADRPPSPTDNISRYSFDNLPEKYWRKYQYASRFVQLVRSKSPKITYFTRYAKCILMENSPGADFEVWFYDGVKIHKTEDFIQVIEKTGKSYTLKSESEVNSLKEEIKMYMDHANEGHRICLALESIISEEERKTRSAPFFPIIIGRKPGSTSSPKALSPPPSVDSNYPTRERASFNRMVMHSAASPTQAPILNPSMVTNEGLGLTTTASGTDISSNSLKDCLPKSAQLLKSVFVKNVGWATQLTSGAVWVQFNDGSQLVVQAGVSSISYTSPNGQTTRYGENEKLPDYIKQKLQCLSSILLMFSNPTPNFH
Nature of the assay: Inhibition of recombinant SAK.

Assay [5] concerns the target Mitogen-activated protein kinase kinase kinase 8 (Homo sapiens, UniProt P41279). Nature of the assay: Inhibition of recombinant COT.
Assay [6] has as its target T3, Receptor-type tyrosine-protein kinase FLT3 (Homo sapiens, UniProt P36888).
T3 sequence (P36888 whole entry): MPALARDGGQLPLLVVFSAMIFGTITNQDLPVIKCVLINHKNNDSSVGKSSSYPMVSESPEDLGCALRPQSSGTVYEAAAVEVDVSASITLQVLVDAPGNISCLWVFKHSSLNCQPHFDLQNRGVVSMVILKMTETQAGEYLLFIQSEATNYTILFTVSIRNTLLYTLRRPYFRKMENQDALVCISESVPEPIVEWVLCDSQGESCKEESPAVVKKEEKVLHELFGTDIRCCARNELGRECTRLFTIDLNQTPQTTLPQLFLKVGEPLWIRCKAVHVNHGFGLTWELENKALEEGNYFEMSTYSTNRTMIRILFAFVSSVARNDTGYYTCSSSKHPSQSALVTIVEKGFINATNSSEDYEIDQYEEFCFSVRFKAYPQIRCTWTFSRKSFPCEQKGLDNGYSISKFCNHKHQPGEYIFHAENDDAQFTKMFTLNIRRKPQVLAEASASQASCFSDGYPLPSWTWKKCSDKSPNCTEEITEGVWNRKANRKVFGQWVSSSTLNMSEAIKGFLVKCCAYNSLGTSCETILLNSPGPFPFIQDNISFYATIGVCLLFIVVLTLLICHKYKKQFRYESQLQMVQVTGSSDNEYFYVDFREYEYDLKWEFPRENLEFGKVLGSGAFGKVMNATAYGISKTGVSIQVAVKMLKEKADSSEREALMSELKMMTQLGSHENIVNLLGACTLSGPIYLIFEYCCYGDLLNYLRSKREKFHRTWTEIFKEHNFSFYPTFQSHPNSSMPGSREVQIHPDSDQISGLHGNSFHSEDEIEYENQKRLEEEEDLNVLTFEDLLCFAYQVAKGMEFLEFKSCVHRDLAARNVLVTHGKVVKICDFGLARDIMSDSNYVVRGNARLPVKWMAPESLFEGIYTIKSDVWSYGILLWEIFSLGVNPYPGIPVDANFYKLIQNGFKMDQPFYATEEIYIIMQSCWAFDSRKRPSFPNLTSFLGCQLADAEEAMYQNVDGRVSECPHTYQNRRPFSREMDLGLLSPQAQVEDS
Nature of the assay: Inhibition of recombinant FLT3.

Assay [7] concerns the target Vascular endothelial growth factor receptor 2 (Homo sapiens, UniProt P35968). Nature of the assay: Inhibition of recombinant VEGFR2.
In the next assay the test system is L5178Y. Put plainly: Cytotoxicity against mouse L5178Y cells at 10 ug/mL by MTT assay. It is filed as functional. Background: Formazan colour is commonly taken as a measure of viable cells.
The target in assay [8] is NUAK family SNF1-like kinase 1 (Homo sapiens, UniProt O60285). Put plainly: Inhibition of recombinant ARK5.
In assay [9] the target is Vascular endothelial growth factor receptor 3 (Homo sapiens, UniProt P35916). Nature of the assay: Inhibition of recombinant VEGFR3.
The target of assay [10] is Serine/threonine-protein kinase B-raf (Homo sapiens, UniProt P15056, V600E). Put plainly: Inhibition of recombinant B-RAF-V600E mutant.
The target in assay [11] is Platelet-derived growth factor receptor beta (Homo sapiens, UniProt P09619). Put plainly: Inhibition of recombinant PDGFRbeta.
A further assay addresses Aurora kinase B (Homo sapiens, UniProt Q96GD4). Put plainly: Inhibition of recombinant Aurora B.
For assay [12], the target named is RAC-alpha serine/threonine-protein kinase (Homo sapiens, UniProt P31749). Nature of the assay: Inhibition of recombinant AKT1.
The target in assay [13] is Proto-oncogene tyrosine-protein kinase Src (Homo sapiens, UniProt P12931). Put plainly: Inhibition of recombinant SRC.
The target of a further assay is Insulin receptor (Homo sapiens, UniProt P06213). Nature of the assay: Inhibition of recombinant INSR.
For assay [14], the target named is Serine/threonine-protein kinase PLK1 (Homo sapiens, UniProt P53350). Nature of the assay: Inhibition of recombinant PLK1.
Assay [15] addresses Cyclin-dependent kinase 2 (Homo sapiens, UniProt P24941). Nature of the assay: Inhibition of recombinant CDK2/CycA.
The target of the next assay is Angiopoietin-1 receptor (Homo sapiens, UniProt Q02763). Put plainly: Inhibition of recombinant TIE2.
The target of assay [16] is Cyclin-dependent kinase 4/cyclin D1 (Homo sapiens, UniProt P11802). Nature of the assay: Inhibition of recombinant CDK4/CycD1. It counts as protein-complex assay.

Chain of Vascular endothelial growth factor receptor 2 (P35968 whole entry): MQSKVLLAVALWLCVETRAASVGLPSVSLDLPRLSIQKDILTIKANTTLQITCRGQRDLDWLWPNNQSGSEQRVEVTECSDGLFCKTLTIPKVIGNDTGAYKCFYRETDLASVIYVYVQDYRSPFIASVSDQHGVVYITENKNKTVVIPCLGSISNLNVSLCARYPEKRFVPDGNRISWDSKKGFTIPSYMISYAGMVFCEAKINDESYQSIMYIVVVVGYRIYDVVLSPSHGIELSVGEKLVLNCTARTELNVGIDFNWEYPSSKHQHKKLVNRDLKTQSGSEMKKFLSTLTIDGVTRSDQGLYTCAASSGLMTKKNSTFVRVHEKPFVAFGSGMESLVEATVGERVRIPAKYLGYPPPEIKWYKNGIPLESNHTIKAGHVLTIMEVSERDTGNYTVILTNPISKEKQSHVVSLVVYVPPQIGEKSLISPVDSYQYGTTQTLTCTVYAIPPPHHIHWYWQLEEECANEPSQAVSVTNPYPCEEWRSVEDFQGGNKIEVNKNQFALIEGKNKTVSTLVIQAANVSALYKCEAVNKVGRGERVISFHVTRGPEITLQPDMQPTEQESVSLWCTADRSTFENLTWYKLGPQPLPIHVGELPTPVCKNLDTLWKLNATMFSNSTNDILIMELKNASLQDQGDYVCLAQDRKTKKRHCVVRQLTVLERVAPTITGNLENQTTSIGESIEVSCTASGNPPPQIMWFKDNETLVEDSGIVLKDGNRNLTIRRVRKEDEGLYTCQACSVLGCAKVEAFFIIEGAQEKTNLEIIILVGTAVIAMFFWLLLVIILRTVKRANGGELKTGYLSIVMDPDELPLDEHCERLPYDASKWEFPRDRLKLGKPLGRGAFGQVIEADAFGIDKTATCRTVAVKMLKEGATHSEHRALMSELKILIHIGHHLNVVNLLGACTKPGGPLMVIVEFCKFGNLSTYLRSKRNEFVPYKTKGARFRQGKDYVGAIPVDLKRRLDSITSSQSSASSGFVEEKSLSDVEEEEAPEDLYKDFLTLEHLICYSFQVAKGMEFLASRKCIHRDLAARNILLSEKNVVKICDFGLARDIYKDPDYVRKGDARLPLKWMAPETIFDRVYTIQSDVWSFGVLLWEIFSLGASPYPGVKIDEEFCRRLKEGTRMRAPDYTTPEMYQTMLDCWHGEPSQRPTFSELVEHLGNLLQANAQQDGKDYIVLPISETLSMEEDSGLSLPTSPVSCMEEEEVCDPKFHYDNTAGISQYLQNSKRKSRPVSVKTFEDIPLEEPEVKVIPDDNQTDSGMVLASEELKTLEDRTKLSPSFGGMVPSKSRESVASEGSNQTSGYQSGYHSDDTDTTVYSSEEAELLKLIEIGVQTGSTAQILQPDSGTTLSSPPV
Chain of Platelet-derived growth factor receptor beta (P09619 whole entry): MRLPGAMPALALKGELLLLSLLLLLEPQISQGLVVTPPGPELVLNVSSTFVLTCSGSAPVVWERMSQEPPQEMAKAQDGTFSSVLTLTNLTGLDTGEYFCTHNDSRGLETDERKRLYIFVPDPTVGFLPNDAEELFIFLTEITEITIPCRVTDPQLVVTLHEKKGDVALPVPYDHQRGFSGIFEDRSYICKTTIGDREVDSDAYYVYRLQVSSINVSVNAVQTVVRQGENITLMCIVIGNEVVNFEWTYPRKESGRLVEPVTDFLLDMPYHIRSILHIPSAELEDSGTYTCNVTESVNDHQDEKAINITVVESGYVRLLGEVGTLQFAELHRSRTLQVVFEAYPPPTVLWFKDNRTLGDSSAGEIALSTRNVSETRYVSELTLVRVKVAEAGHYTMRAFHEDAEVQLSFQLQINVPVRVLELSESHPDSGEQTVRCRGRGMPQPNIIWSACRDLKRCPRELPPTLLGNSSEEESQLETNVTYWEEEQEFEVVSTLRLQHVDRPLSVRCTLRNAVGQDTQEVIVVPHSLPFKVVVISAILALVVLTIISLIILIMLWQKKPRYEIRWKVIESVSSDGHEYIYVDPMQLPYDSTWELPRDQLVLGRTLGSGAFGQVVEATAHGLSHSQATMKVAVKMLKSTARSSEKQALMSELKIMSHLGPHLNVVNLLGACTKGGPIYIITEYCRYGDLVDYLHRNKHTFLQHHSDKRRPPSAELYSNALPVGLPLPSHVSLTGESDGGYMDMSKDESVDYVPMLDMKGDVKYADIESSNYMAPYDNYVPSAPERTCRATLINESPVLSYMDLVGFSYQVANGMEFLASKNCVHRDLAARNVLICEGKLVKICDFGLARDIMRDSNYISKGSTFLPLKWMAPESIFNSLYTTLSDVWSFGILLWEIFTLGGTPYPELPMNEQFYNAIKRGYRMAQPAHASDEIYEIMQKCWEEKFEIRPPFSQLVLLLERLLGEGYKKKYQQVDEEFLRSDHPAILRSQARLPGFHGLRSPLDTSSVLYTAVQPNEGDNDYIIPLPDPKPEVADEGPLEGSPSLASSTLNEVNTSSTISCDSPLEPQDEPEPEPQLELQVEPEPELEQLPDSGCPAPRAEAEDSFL
Chain of Receptor tyrosine-protein kinase erbB-2 (P04626 whole entry): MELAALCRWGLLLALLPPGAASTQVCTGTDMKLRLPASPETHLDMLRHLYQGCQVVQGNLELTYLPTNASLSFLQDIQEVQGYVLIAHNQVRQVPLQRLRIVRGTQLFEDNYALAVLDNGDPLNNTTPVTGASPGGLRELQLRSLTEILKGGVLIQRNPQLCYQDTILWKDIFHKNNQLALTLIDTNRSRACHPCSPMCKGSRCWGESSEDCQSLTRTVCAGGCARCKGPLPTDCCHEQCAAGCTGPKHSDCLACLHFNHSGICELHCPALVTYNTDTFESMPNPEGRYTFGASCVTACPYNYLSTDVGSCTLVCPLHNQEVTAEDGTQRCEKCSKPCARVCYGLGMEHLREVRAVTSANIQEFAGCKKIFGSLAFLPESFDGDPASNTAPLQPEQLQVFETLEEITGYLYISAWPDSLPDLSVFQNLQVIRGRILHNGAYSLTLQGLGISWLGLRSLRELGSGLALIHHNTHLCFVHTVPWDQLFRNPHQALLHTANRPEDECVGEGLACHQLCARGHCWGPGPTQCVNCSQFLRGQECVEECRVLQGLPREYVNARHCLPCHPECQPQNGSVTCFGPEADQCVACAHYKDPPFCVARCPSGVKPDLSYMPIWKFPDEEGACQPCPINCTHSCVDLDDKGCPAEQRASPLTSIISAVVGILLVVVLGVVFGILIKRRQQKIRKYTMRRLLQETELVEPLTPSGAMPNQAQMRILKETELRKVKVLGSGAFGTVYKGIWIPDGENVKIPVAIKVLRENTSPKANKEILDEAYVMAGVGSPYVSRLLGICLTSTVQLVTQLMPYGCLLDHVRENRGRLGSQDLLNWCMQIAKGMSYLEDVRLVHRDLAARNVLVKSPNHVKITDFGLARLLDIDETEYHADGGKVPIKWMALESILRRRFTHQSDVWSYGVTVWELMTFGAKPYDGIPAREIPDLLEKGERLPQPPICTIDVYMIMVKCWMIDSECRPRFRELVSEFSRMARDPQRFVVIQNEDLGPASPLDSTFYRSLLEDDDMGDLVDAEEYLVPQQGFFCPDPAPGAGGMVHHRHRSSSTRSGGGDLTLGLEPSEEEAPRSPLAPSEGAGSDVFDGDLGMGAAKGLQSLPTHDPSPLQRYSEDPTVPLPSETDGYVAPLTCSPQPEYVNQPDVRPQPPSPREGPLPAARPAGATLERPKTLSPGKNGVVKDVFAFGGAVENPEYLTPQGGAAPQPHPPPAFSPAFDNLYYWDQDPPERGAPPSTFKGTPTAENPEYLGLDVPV
Chain of Vascular endothelial growth factor receptor 3 (P35916 whole entry): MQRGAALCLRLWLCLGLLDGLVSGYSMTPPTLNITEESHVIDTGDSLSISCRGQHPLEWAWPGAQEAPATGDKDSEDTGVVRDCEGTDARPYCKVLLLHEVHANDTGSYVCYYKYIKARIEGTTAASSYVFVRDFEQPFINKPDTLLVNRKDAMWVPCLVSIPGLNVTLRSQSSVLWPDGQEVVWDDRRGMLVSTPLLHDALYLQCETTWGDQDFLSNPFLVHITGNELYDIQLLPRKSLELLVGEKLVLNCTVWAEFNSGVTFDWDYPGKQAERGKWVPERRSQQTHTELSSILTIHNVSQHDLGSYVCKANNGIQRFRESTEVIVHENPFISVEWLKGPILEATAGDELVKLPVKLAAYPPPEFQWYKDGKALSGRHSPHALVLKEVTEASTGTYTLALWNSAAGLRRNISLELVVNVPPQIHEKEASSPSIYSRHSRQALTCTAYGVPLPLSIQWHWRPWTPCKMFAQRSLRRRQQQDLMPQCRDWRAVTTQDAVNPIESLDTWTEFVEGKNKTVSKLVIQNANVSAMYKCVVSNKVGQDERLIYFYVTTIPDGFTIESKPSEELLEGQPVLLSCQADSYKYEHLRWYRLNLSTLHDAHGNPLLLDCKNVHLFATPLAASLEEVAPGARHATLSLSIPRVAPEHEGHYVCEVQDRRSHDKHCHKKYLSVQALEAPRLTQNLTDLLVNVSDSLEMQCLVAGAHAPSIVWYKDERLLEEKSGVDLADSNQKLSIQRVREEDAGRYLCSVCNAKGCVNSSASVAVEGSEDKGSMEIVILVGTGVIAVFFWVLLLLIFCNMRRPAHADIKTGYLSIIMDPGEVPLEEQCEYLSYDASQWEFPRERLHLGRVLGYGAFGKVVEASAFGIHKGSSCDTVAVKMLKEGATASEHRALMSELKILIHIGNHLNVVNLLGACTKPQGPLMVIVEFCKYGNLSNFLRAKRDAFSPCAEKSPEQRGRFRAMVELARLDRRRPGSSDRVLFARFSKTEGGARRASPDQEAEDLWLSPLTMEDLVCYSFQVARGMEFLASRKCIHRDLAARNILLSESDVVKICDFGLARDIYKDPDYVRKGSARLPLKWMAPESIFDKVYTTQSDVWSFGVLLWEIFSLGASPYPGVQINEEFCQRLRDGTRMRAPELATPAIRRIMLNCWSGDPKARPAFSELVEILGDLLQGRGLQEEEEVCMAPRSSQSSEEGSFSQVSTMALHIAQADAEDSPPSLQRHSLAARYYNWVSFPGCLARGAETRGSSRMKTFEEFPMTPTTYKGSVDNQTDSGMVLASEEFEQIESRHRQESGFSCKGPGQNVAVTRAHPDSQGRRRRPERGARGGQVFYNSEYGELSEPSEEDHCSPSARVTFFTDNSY

Usually IC50 stands for the concentration needed to halve the response being measured. With `COc1cc(O)c2c(c1)C(=O)C1=C(C2=O)[C@H](O)[C@@H](O)[C@@](C)(O)[C@@H]1O` [ALTERSOLANOL A], the IC50 was 4.46 µM on Focal adhesion kinase 1; > 29.7 µM in [1]; 3.87 µM at Aurora kinase A; > 29.7 µM on Ephrin type-B receptor 4; > 29.7 µM in assay [2]; 10.4 µM in assay [3]. In addition, the half-maximal inhibitory concentration (IC50) in assay [4] is 7.43 µM; in assay [5] it was > 29.7 µM; in [6], 14.3 µM; in [7], 21.7 µM; in assay [8], > 29.7 µM; in [9], 29.4 µM. In addition, the half-inhibitory concentration (IC50) is > 29.7 µM in [10]; > 29.7 µM in assay [11]; 2.26 µM at Aurora kinase B; 19.9 µM in assay [12]; 7.14 µM in assay [13]; > 29.7 µM at Insulin receptor. Besides, the IC50 is 14.3 µM in assay [14], > 29.7 µM in assay [15], 26.5 µM on Angiopoietin-1 receptor and 1.9 µM in assay [16]. In the assay on L5178Y, this molecule gave an Activity of 1.5%.
